How the values were obtained:
Type in all cases: biochemical
Human recombinant MMP-1 = target: T1, Human recombinant MMP-1 (Homo sapiens, UniProt P03956); assay: In vitro MMP inhibition, Ki determination (fluorogenic substrate II)
T1 construct: made in house; host or cells: MMP-1-transfected HT-1080 cells (spent media)
T1 sequence (P03956 100-469): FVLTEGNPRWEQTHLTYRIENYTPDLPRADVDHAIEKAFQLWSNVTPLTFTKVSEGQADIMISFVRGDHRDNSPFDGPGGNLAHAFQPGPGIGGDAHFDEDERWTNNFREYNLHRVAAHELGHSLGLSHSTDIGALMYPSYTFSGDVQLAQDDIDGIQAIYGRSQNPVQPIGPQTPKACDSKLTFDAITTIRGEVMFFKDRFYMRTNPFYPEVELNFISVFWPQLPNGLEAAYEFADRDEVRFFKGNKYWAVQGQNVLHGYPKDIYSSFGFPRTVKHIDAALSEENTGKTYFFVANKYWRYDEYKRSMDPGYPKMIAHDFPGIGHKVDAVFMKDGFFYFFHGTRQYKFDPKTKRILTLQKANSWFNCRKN
Protocol: (§1) Several hydroxamates and salts thereof were analyzed in in vitro assays to determine their ability to inhibit the MMP cleavage of peptide substrates. Inhibition (Ki) and IC50 constants were calculated from the assayed hydroxamate-MMP interactions.
(§2) Human recombinant MMP-1, MMP-2, MMP-9, MMP-13, and MMP-14 were used in this assay. All enzymes were prepared in Assignee's laboratories following usual laboratory procedures. Protocols for the preparation and use of these enzymes are available in the scientific literature. See, e.g., Enzyme Nomenclature (Academic Press, San Diego, Calif., 1992) (and the citations therein). See also, Frije et al., J. Biol. Chem., 26(24), 16766-73 (1994).
The MMP-1 proenzyme was purified from the spent media of MMP-1-transfected HT-1080 cells provided by Dr. Harold Welgus of Washington University (St. Louis, Mo.). The protein was purified on a zinc chelating column.
(§3) All MMPs were activated using 4-aminophenylmercuric acetate (“APMA”, Sigma Chemical, St. Louis, Mo.) or trypsin. MMP-9 also was activated using human recombinant MMP-3 (purified in Assignee's laboratory following standard cloning and purification techniques).
(§4) Two fluorogenic, methoxycoumarin-containing polypeptide substrates were used in the MMP inhibition assays:
(§5) MCA-ArgProLeuGlyLeuDpaAlaArgGluArgNH2 (II)
(§6) Here, “Dpa” is 3-(2,4-dinitrophenyl)-L-2,3-diaminopropionyl group, and “MCA” is 7-methoxycoumarin-4-yl acetyl. Substrate (I) was purchased from Baychem (Redwood City, Calif.), and substrate II was prepared Assignee's laboratory. Substrate I was used in the IC50 determination assays, while substrate II was used in the Ki determination assays. In the absence of MMP inhibitory activity, either substrate is cleaved at the Gly-Leu peptide bond. This cleavage separates the highly fluorogenic peptide from the 2,4-dinitrophenyl quencher, thus resulting in increase of fluorescent intensity.
(§7) The stock solutions of the assayed hydroxamates (or salts thereof) were prepared in 1% dimethyl sulfoxide (DMSO). These stock solutions were diluted in Buffer A (100 mM Tris-HCl, 100 mM NaCl, 10 mM CaCl2, 0.05% polyoxyethylene 23 lauryl ether, pH 7.5) to obtain solutions with different hydroxamate concentrations, i.e., assay solutions with different concentrations of the assayed MMP inhibitory compound. The experiment controls contained the same amount of Buffer A/DMSO as the assayed sample, but contained no hydroxamate (or salt thereof).
(§8) The assays from which the Ki determinations were made were performed as follows. The assayed hydroxamate samples were incubated in separate wells of untreated white polystyrene plates (Nunc Nalgene International, Rochester, N.Y.), and analyzed on a Tecan SpectraFlour Plus plate reader. The excitation wavelength was 330 nm, and the emission wavelength—420 nm. All samples (assayed hydroxamates and controls) were incubated in separate plate wells at room temperature for 1 hr in the presence of 4 μM of MMP substrate (II). In the absence of MMP inhibitory activity, substrate II was cleaved at the Gly-Leu bond resulting in an increase of relative fluorescence. Inhibition was observed as a reduced rate of this increase in relative fluorescence. The various hydroxamates were analyzed using a single low enzyme concentration with a single substrate concentration fixed at or below the Km. This protocol is a modification of method by Knight et al., FEBS Lett., 296(3), 263-266 (1992). Apparent inhibitory constants were determined by non-linear regression of reaction velocity as a function of inhibitor and enzyme concentration using Morrison's equation, as described by Kuzmic, Anal. Biochem. 286, 45-50 (2000). Modifications were made in the non-linear regression method to allow a common control reaction rate and effective enzyme concentration to be shared between all dose-response relationships on a given assay plate. […]

Human recombinant MMP-9 = target: T2, Human recombinant MMP-9 (Homo sapiens, UniProt P14780); assay: as above
T2 construct: made in house; host or cells: MMP-9-transfected HT1080 cells (spent media)
Protocol: as §1, §2
The MMP-9 proenzyme was purified by gelatin Sepharose chromatography from spent media of MMP-9-transfected HT1080 cells provided by Dr. Howard Welgus of Washington University (St. Louis, Mo.).
as §3, §4, §5, §6, §7, §8

Human recombinant MMP-13 = target: T3, Human recombinant MMP-13 (Homo sapiens, UniProt P45452); assay: In vitro MMP inhibition, IC50 determination (fluorogenic substrate I)
T3 construct: made in house; host or cells: baculovirus / insect cells
Method in brief: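 Fluorescence at 415 nm (excitation 328 nm) reports Gly-Leu cleavage of 4 μM quenched methoxycoumarin peptide substrate I. Human recombinant MMP-13, activated by trypsin or APMA, was incubated at room temperature with varied inhibitor concentrations in pH 7.5 Tris/NaCl/CaCl2 buffer; IC50 derived from reduced fluorescence.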

[1] = substrate (II) 4 μM, 1 hr room temperature, apparent Ki, values in parenthesis
[2] = substrate (I) 4 μM, room temperature, values not in parenthesis

T2 sequence (P14780 107-707 limits assumed): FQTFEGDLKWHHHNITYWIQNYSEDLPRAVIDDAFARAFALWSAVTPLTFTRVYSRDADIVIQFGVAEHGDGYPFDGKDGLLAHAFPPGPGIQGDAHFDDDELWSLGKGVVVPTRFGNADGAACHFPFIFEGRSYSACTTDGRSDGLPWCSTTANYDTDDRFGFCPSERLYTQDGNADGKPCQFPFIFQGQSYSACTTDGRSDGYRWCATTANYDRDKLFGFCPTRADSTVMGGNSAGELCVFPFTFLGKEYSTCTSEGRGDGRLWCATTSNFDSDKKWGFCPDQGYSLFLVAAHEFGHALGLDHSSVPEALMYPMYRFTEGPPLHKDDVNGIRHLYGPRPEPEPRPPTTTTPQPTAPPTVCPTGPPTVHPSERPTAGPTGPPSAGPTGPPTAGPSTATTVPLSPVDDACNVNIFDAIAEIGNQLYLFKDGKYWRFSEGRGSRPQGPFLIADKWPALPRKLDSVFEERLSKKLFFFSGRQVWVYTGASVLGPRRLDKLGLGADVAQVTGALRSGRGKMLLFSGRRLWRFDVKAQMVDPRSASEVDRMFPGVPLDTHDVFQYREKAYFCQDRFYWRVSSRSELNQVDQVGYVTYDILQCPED

| Ki (Human recombinant MMP-1; value in parentheses) [µM] | Ki (Human recombinant MMP-9; value in parentheses) [nM] | IC50 (Human recombinant MMP-13; value outside parentheses) [nM] | Ki (Human recombinant MMP-1; value in parenthesis) [µM] | Ki (Human recombinant MMP-9; value in parenthesis) [nM] | IC50 (Human recombinant MMP-13; value outside parenthesis) [nM] | Structure (SMILES) | further results |
| --- | --- | --- | --- | --- | --- | --- | --- |
| > 10 | 5810 | 118 | – | – | – | O=C(NO)C1(S(=O)(=O)c2ccc(OCCCc3cccc(-c4csc5ccccc45)c3)cc2)CCOCC1 [Example 631] | – |
| > 10 | 11.3 | 0.1 | – | – | – | O=C(NCCOc1ccc(S(=O)(=O)C2(C(=O)NO)CCOCC2)cc1)c1cc2ccccc2[nH]1 [Example 599] | – |
| – | – | – | – | – | – | O=C(NO)C1(S(=O)(=O)c2ccc(OCCCc3nc(-c4ccc(OC(F)(F)F)cc4)no3)cc2)CCOCC1 [Example 31, tetrahydro-N-hydroxy-4-[[4-[3-[3[4-(trifluoromethoxy)phenyl]-1,2,4-oxadiazol-5-yl]propoxy]phenyl]sulfonyl]-2H-pyran-4-carboxamide] | Ki (Human recombinant MMP-1; [1]): > 10 µM; Ki (Human recombinant MMP-9; [1]): 1600 nM; IC50 (Human recombinant MMP-13; [2]): 2.1 nM |
| – | – | – | > 10 | 3150 | 15.6 | O=C(NO)C1(S(=O)(=O)c2ccc(OCCCc3cccc(-c4ccccc4Cl)c3)cc2)CCOCC1 [Example 162] | – |
| – | – | – | > 10 | 1730 | 2.6 | O=C(NO)C1(S(=O)(=O)c2ccc(OCCCc3cccc(-c4cccc(F)c4)c3)cc2)CCOCC1 [Example 161] | – |
| > 10 | 688 | 4.3 | – | – | – | Cc1ccc(-c2cccc(CCCOc3ccc(S(=O)(=O)C4(C(=O)NO)CCOCC4)cc3)c2)s1 [Example 639] | – |
| – | – | – | > 10 | 754 | 0.5 | COCCN1CCC(C(=O)NO)(S(=O)(=O)c2ccc(OCCCc3cccc(-c4ccc(F)cc4)c3)cc2)CC1 [Example 140] | – |
| > 10 | 4600 | 33.6 | – | – | – | O=C(NO)C1(S(=O)(=O)c2ccc(OCCCc3cccc(-c4ccc(C(F)(F)F)cc4)c3)cc2)CCOCC1 [Example 625] | – |
| – | – | – | > 10 | 9750 | 147 | Cc1ccc(-c2cccc(CCCOc3ccc(S(=O)(=O)C4(C(=O)NO)CCOCC4)cc3)c2)cc1C [Example 165] | – |
| – | – | – | > 10 | 172 | 9.7 | CCc1ccccc1-c1noc(CCCOc2ccc(S(=O)(=O)C3(C(=O)NO)CCN(CCOC)CC3)cc2)n1 [Example 155] | – |
| > 10 | 135 | 0.3 | – | – | – | O=C(NO)C1(S(=O)(=O)c2ccc(OCCCc3cncc(Br)c3)cc2)CCOCC1 [Example 522] | – |
| – | – | – | – | – | – | O=C(NO)C1(S(=O)(=O)c2ccc(OCCc3cccc(-c4ccccn4)c3)cc2)CCOCC1 [Example 40] | Ki (Human recombinant MMP-1; [1]): > 10 µM; Ki (Human recombinant MMP-9; [1]): 585 nM; IC50 (Human recombinant MMP-13; [2]): 0.5 nM |
| – | – | – | – | – | – | CCN1CCC(C(=O)NO)(S(=O)(=O)c2ccc(OCCCc3cccc(-c4ccccc4)c3)cc2)CC1 [Example 46] | Ki (Human recombinant MMP-1; [1]): > 10 µM; Ki (Human recombinant MMP-9; [1]): 418 nM; IC50 (Human recombinant MMP-13; [2]): 3.1 nM |
| – | – | – | – | – | – | O=C(NO)C1(S(=O)(=O)c2ccc(OCCCn3nnc(-c4ccc(OC(F)(F)F)cc4)n3)cc2)CCN(C2CC2)CC1 [Example 49] | Ki (Human recombinant MMP-1; [1]): > 10 µM; Ki (Human recombinant MMP-9; [1]): 1950 nM; IC50 (Human recombinant MMP-13; [2]): 0.3 nM |
| – | – | – | > 10 | > 10000 | 505 | CC(C)c1ccc(-c2cccc(CCCOc3ccc(S(=O)(=O)C4(C(=O)NO)CCOCC4)cc3)c2)cc1 [Example 160] | – |
| > 10 | 2280 | 0.4 | – | – | – | O=C(NO)C1(S(=O)(=O)c2ccc(OCCCc3cccc(-c4ccc(F)cc4F)c3)cc2)CCOCC1 [Example 630] | – |
